Assay results from ChEMBL document CHEMBL5252515, “Discovery of 6-Amino-2-{[(1S)-1-methylbutyl]oxy}-9-[5-(1-piperidinyl)pentyl]-7,9-dihydro-8H-purin-8-one (GSK2245035), a Highly Potent and Selective Intranasal Toll-Like Receptor 7 Agonist for the Treatment of Asthma” (J Med Chem, 2016).
Active and inactive are the calls of the source. The calls are words filed in the database; no cut-off is given here.

Tests used:
[1] = molecular target: T1, Toll-like receptor 7 (Macaca fascicularis) (UniProt B3Y652); assay: In vivo target occupancy at TLR7 in cynomolgus monkey assessed as fold increase in CXCL10 mRNA expression in nasal scrape at 30 ng/kg administered intranasally incubated for 24 hrs by TaqMan analysis (reference value: 1.6); assay type: functional
T1 sequence (whole entry): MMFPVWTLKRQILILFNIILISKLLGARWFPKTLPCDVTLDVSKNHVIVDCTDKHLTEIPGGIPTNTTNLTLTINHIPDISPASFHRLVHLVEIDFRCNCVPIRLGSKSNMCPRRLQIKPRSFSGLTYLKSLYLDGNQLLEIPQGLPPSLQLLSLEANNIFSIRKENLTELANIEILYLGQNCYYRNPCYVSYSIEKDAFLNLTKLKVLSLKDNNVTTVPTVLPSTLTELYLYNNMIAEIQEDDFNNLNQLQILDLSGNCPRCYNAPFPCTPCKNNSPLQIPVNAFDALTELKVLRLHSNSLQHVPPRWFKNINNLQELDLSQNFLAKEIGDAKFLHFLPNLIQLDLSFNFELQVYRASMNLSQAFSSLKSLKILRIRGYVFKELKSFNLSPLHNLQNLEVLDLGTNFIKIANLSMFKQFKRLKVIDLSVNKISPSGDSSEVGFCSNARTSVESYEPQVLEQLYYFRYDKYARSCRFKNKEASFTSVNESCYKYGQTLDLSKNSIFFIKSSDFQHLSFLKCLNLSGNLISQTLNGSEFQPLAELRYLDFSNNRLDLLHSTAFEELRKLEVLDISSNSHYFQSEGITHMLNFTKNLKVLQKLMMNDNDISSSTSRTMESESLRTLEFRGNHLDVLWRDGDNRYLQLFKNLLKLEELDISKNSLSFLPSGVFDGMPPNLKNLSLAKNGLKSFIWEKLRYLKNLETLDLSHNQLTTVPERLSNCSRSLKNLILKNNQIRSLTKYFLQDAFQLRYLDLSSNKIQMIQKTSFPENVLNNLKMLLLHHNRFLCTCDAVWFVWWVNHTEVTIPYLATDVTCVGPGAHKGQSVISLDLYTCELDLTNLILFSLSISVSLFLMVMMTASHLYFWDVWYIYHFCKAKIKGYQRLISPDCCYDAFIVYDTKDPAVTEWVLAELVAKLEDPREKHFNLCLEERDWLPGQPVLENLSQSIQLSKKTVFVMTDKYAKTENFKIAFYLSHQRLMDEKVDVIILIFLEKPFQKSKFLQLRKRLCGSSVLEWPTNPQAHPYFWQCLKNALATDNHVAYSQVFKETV

PBMC [2] = assay: Immunomodulatory activity in human PBMC assessed as reduction in house dust mite induced IL-13 level after 6 days; assay type: functional, cell-based; details: dose 0.01-10000 nM, time 6.0 day
Toll-like receptor 7 [3] = molecular target: T2, Toll-like receptor 7 (Homo sapiens, UniProt Q9NYK1); assay: Agonist activity at TLR7 (unknown origin) expressed in human U2OS cells assessed as induction of NF-kappaB driven TNFalpha production by luciferase reporter assay; assay type: cell-based
T2 sequence (Q9NYK1 whole entry): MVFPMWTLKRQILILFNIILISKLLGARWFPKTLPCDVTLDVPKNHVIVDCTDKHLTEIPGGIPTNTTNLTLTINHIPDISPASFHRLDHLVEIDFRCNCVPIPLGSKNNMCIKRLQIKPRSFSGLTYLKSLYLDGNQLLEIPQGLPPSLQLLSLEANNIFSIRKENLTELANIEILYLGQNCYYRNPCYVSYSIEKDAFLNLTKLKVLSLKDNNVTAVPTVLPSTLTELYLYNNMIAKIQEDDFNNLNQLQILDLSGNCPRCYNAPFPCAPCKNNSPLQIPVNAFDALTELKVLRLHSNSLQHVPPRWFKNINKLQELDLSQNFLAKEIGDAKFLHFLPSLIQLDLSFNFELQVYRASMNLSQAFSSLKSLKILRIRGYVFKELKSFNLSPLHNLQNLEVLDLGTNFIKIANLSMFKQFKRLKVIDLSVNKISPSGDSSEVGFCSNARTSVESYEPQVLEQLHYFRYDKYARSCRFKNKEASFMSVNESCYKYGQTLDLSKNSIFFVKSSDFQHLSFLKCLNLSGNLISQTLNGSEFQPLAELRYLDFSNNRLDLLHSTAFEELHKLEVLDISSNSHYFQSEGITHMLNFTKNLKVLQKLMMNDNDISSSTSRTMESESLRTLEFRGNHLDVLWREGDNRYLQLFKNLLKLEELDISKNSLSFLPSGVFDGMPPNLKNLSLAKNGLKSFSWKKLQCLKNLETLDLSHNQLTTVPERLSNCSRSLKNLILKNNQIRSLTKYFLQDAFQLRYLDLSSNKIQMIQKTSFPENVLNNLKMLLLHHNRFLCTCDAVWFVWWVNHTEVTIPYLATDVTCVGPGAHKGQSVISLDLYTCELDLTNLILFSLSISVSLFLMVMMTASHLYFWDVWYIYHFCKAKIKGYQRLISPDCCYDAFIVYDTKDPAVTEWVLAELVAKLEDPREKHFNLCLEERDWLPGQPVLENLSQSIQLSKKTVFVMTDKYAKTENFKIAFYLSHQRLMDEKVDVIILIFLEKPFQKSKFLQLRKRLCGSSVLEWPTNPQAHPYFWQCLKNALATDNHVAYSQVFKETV

PBMC [4] = assay: Immunomodulatory activity in human PBMC assessed as IFNalpha production incubated for 6 days in presence of allergen timothy grass; assay type: functional, cell-based; details: time 6.0 day
Cynomolgus monkey = assay: Induction of plasma cytokines in cynomolgus monkey; assay type: functional, organism-based; details: Macaca fascicularis
[5] = molecular target: T1, Toll-like receptor 7 (Macaca fascicularis); assay: In vivo target occupancy at TLR7 in cynomolgus monkey assessed as fold increase in OAS1 mRNA expression in nasal scrape at 3 ng/kg administered intranasally incubated for 24 hrs by TaqMan analysis (reference value: 1.2); assay type: functional
Toll-like receptor 7 [6] = molecular target: T3, Toll-like receptor 7 (Macaca fascicularis, UniProt B3Y652); assay: Agonist activity at TLR7 in cynomolgus monkey whole blood assessed as induction of IFNalpha production; assay type: tissue-based
T3 sequence (B3Y652 whole entry): T1 sequence (whole entry)

Toll-like receptor 7 [7] = molecular target: T2, Toll-like receptor 7; assay: Agonist activity at TLR7 in human whole blood assessed as induction of TNFalpha production after 20 hrs by electrochemiluminescence assay; assay type: tissue-based
PBMC [8] = assay: Immunomodulatory activity in human PBMC assessed as IL-10 production in presence of allergen timothy grass; assay type: functional, cell-based
[9] = molecular target: T1, Toll-like receptor 7 (Macaca fascicularis); assay: In vivo target occupancy at TLR7 in cynomolgus monkey assessed as fold increase in CXCL10 mRNA expression in nasal scrape at 3 ng/kg administered intranasally incubated for 24 hrs by TaqMan analysis (reference value: 1.6); assay type: functional
[10] = Selectivity ratio of pEC50 for agonist activity at TLR7 in human whole blood to pEC50 for agonist activity at TLR7 in BALB/c mouse splenocytes; assay type: cell-based
Toll-like receptor 7 [11] = molecular target: T2, Toll-like receptor 7; assay: Agonist activity at TLR7 in human U2OS cells; assay type: cell-based
[12] = Ocular toxicity in monkey at 10 ug/ml; set-up: species or system Macaca mulatta; details: rhesus monkey, in vivo; dose 10 µg/ml
[13] = molecular target: T1, Toll-like receptor 7 (Macaca fascicularis); assay: In vivo target occupancy at TLR7 in cynomolgus monkey assessed as fold increase in GBP1 mRNA expression in nasal scrape at 30 ng/kg administered intranasally incubated for 24 hrs by TaqMan analysis (reference value: 2.4); assay type: functional
[14] = Toxicity in female rat assessed as NOAEL after 14 days; details: in vivo, time 14 day

CCC[C@H](C)Oc1nc(N)c2[nH]c(=O)n(CCCCCN3CCCCC3)c2n1 [GSK-2245035]
fold change (FC) [1]: 638 | Activity (PBMC [2]): Dose-Dependent Effect | EC50 (Toll-like receptor 7 [3]): 1.26 µM | Activity (PBMC [4]): Active | Activity (Cynomolgus monkey): inactive | fold change (FC) [5]: 38.9 | EC50 (Toll-like receptor 7 [6]): 0.0794 µM | EC50 (Toll-like receptor 7 [7]): 10 µM | Activity (PBMC [8]): Active | fold change (FC) [9]: 230 | Selectivity ratio [10]: 10 | EC50 (Toll-like receptor 7 [11]): 2 µM | Activity [12]: Non-Toxic | fold change (FC) [13]: 97.6 | NOAEL at 336 h [14]: 0.772 mg/kg/day
